Measurements from patent US20090036448A1, “PYRIMIDINE DERIVATIVES AND METHODS OF TREATMENT RELATED TO THE USE THEREOF” (TAISHO PHARMECUTICAL CO., LTD., priority 2004, published 2009).

molecular target: MCH receptor (Homo sapiens, UniProt Q99705); assay: Receptor binding assay with Radiolabelled MCH Ligand; parameters: expressed in transfected cells; host or cells: 293 cells (human kidney, ATCC), transient transfection; crude membranes; conditions: class by percent of control at 10^-7 M or IC50
Method in brief: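 This was a filtration radioligand displacement assay: compounds, first tested at 1 and 0.1 μM and then over a range, inhibited binding of a labelled MCH ligand to transfected 293-cell membranes at room temperature for 60–120 min. Specific binding excluded a cold-MCH nonspecific signal. Ki was derived from IC50 via Cheng-Prusoff, using an independently measured KD.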

MCH receptor, sequence (Q99705 whole entry): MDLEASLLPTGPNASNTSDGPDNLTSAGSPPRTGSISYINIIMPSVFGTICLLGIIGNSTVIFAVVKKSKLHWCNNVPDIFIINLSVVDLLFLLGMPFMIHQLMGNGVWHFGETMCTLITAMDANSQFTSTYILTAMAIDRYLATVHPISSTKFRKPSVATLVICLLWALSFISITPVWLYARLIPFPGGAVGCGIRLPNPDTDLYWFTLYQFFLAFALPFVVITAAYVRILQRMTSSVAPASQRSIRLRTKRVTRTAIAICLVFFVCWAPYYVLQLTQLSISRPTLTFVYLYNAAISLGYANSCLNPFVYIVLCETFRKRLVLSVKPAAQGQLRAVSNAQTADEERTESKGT

SMILES	class
Cc1nc(N[C@H]2CC[C@@H](NCc3cc4ccccc4s3)CC2)cc(N(C)C)n1 [compound 357]	3 (Class 3: The value of percent of control at 10^−7 M was more than 60% or the value of IC50 was more than 200 nM.)
Cc1nc(N[C@H]2CC[C@@H](NCc3ccc(Br)cc3)CC2)cc(N(C)C)n1 [compound 358]	3 (Class 3: The value of percent of control at 10^−7 M was more than 60% or the value of IC50 was more than 200 nM.)
Cc1nc(N[C@H]2CC[C@@H](NCCOCc3ccccc3)CC2)cc(N(C)C)n1 [compound 359]	3 (Class 3: The value of percent of control at 10^−7 M was more than 60% or the value of IC50 was more than 200 nM.)
Cc1nc(N[C@H]2CC[C@@H](NCc3ccc(Cl)cc3)CC2)cc(N(C)C)n1 [compound 360]	3 (Class 3: The value of percent of control at 10^−7 M was more than 60% or the value of IC50 was more than 200 nM.)
Cc1nc(N[C@H]2CC[C@@H](NCCOc3ccc(Cl)cc3)CC2)cc(N(C)C)n1 [compound 361]	3 (Class 3: The value of percent of control at 10^−7 M was more than 60% or the value of IC50 was more than 200 nM.)
Cc1nc(N[C@H]2CC[C@@H](NCC3CC3)CC2)cc(N(C)C)n1 [compound 362]	3 (Class 3: The value of percent of control at 10^−7 M was more than 60% or the value of IC50 was more than 200 nM.)
Cc1nc(N[C@H]2CC[C@@H](NCC3CCCCC3)CC2)cc(N(C)C)n1 [compound 363]	3 (Class 3: The value of percent of control at 10^−7 M was more than 60% or the value of IC50 was more than 200 nM.)
Cc1nc(N[C@H]2CC[C@@H](NCCc3ccc(Cl)cc3)CC2)cc(N(C)C)n1 [compound 364]	3 (Class 3: The value of percent of control at 10^−7 M was more than 60% or the value of IC50 was more than 200 nM.)
Cc1nc(N[C@H]2CC[C@@H](NCC3(c4ccc(Cl)cc4)CCCC3)CC2)cc(N(C)C)n1 [compound 365]	3 (Class 3: The value of percent of control at 10^−7 M was more than 60% or the value of IC50 was more than 200 nM.)
Cc1nc(N[C@H]2CC[C@@H](NCc3c(-c4c(F)cccc4Cl)noc3C)CC2)cc(N(C)C)n1 [compound 366]	3 (Class 3: The value of percent of control at 10^−7 M was more than 60% or the value of IC50 was more than 200 nM.)
Cc1nc(N[C@H]2CC[C@@H](NCc3scc(S(=O)(=O)c4ccc(Cl)cc4)c3C)CC2)cc(N(C)C)n1 [compound 367]	3 (Class 3: The value of percent of control at 10^−7 M was more than 60% or the value of IC50 was more than 200 nM.)
Cc1nc(N[C@H]2CC[C@@H](NCc3ccc(N(C)C)cc3)CC2)cc(N(C)C)n1 [compound 368]	3 (Class 3: The value of percent of control at 10^−7 M was more than 60% or the value of IC50 was more than 200 nM.)
Cc1nc(N[C@H]2CC[C@@H](NCc3ccc(F)c(F)c3)CC2)cc(N(C)C)n1 [compound 369]	3 (Class 3: The value of percent of control at 10^−7 M was more than 60% or the value of IC50 was more than 200 nM.)
COc1ccc(CN[C@H]2CC[C@@H](Nc3cc(N(C)C)nc(C)n3)CC2)cc1OC [compound 370]	3 (Class 3: The value of percent of control at 10^−7 M was more than 60% or the value of IC50 was more than 200 nM.)
CCOc1ccc(CN[C@H]2CC[C@@H](Nc3cc(N(C)C)nc(C)n3)CC2)cc1 [compound 371]	3 (Class 3: The value of percent of control at 10^−7 M was more than 60% or the value of IC50 was more than 200 nM.)
Cc1nc(N[C@H]2CC[C@@H](NCc3ccc(F)cc3)CC2)cc(N(C)C)n1 [compound 372]	3 (Class 3: The value of percent of control at 10^−7 M was more than 60% or the value of IC50 was more than 200 nM.)

SMILES	class
Cc1nc(N[C@H]2CC[C@@H](NCc3ccco3)CC2)cc(N(C)C)n1 [compound 373]	3 (Class 3: The value of percent of control at 10^−7 M was more than 60% or the value of IC50 was more than 200 nM.)
Cc1nc(N[C@H]2CC[C@@H](NCc3ccno3)CC2)cc(N(C)C)n1 [compound 374]	3 (Class 3: The value of percent of control at 10^−7 M was more than 60% or the value of IC50 was more than 200 nM.)
Cc1nc(N[C@H]2CC[C@@H](NCc3ccccc3I)CC2)cc(N(C)C)n1 [compound 375]	3 (Class 3: The value of percent of control at 10^−7 M was more than 60% or the value of IC50 was more than 200 nM.)
Cc1nc(N[C@H]2CC[C@@H](NCc3nn(-c4ccccc4)nc3C)CC2)cc(N(C)C)n1 [compound 376]	3 (Class 3: The value of percent of control at 10^−7 M was more than 60% or the value of IC50 was more than 200 nM.)
COc1ccc(Oc2ccc([N+](=O)[O-])cc2CN[C@H]2CC[C@@H](Nc3cc(N(C)C)nc(C)n3)CC2)cc1 [compound 377]	3 (Class 3: The value of percent of control at 10^−7 M was more than 60% or the value of IC50 was more than 200 nM.)
Cc1nc(N[C@H]2CC[C@@H](NCc3ccc4ccccc4c3)CC2)cc(N(C)C)n1 [compound 378]	3 (Class 3: The value of percent of control at 10^−7 M was more than 60% or the value of IC50 was more than 200 nM.)
Cc1nc(N[C@H]2CC[C@@H](NCc3cccc([N+](=O)[O-])c3)CC2)cc(N(C)C)n1 [compound 379]	3 (Class 3: The value of percent of control at 10^−7 M was more than 60% or the value of IC50 was more than 200 nM.)
Cc1nc(N[C@H]2CC[C@@H](NCc3cnn(-c4ccc([N+](=O)[O-])cc4)c3C(F)(F)F)CC2)cc(N(C)C)n1 [compound 380]	3 (Class 3: The value of percent of control at 10^−7 M was more than 60% or the value of IC50 was more than 200 nM.)
Cc1nc(N[C@H]2CC[C@@H](NCCOc3ccccc3)CC2)cc(N(C)C)n1 [compound 381]	3 (Class 3: The value of percent of control at 10^−7 M was more than 60% or the value of IC50 was more than 200 nM.)
Cc1nc(N[C@H]2CC[C@@H](NCCc3ccccc3)CC2)cc(N(C)C)n1 [compound 382]	3 (Class 3: The value of percent of control at 10^−7 M was more than 60% or the value of IC50 was more than 200 nM.)
Cc1nc(N[C@H]2CC[C@@H](NCC3C[C@H]3c3ccccc3)CC2)cc(N(C)C)n1 (some centres unmarked) [compound 383]	3 (Class 3: The value of percent of control at 10^−7 M was more than 60% or the value of IC50 was more than 200 nM.)
Cc1nc(N[C@H]2CC[C@@H](NCc3cnn(-c4ccccc4)c3C(F)(F)F)CC2)cc(N(C)C)n1 [compound 384]	3 (Class 3: The value of percent of control at 10^−7 M was more than 60% or the value of IC50 was more than 200 nM.)
Cc1nc(N[C@H]2CC[C@@H](NCCOc3ccccc3[N+](=O)[O-])CC2)cc(N(C)C)n1 [compound 385]	3 (Class 3: The value of percent of control at 10^−7 M was more than 60% or the value of IC50 was more than 200 nM.)
Cc1nc(N[C@H]2CC[C@@H](NCc3cccc(C(F)(F)F)c3)CC2)cc(N(C)C)n1 [compound 386]	3 (Class 3: The value of percent of control at 10^−7 M was more than 60% or the value of IC50 was more than 200 nM.)
Cc1ccc(CN[C@H]2CC[C@@H](Nc3cc(N(C)C)nc(C)n3)CC2)cc1 [compound 387]	3 (Class 3: The value of percent of control at 10^−7 M was more than 60% or the value of IC50 was more than 200 nM.)
Cc1nc(N[C@H]2CC[C@@H](NCc3cccs3)CC2)cc(N(C)C)n1 [compound 388]	3 (Class 3: The value of percent of control at 10^−7 M was more than 60% or the value of IC50 was more than 200 nM.)
